# Measurements reported in US11547697B2, “Heterocyclic compounds and uses thereof” (MILLENNIUM PHARMACEUTICALS, INC., priority 2009, dated 2023).
# pIC50: −log10 of the molar value. Where two headings read alike, the source gives them in different places.
# What was measured:
# p110α/p85α = p110α/p85α (Homo sapiens (Human), UniProt P42336); assay: PI 3-Kinase (human) HTRF assay, p110α/p85α; format: biochemical
# p110γ = p110γ (Homo sapiens (Human), UniProt P48736); assay: PI 3-Kinase (human) HTRF assay, p110γ; format: biochemical
# Chain of p110γ (P48736 whole entry): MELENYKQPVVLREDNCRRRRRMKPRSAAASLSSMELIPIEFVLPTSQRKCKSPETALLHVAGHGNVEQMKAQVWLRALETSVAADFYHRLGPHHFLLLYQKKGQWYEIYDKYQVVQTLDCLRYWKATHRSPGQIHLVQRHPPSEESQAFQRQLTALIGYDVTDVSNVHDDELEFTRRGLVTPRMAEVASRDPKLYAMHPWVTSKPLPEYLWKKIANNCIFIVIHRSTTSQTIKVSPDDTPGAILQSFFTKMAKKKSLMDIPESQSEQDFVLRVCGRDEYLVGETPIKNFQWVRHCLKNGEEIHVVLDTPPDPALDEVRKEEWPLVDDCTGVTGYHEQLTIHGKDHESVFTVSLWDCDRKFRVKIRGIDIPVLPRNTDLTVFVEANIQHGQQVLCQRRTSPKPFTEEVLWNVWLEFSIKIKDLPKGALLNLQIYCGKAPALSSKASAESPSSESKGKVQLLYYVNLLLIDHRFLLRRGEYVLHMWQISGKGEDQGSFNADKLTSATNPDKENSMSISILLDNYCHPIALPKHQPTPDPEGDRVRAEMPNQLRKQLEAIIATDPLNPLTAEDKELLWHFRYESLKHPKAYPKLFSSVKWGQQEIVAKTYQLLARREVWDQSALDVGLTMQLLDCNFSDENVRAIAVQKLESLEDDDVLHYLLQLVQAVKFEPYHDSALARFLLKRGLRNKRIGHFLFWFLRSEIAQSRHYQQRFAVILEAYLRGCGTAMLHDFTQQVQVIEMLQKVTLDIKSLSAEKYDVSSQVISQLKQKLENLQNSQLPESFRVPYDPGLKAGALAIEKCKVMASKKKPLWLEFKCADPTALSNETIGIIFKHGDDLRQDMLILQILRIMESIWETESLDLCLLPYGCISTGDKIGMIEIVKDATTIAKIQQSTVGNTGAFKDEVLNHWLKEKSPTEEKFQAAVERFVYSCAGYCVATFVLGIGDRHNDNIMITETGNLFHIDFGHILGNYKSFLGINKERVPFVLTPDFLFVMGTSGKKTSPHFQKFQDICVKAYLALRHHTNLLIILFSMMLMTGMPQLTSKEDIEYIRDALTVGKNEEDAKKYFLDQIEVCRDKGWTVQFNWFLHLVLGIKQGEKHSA
# Experimental: An exemplary system is PI 3-Kinase (human) HTRF™ Assay from Upstate. […] Briefly, the assay is a time resolved FRET assay that indirectly measures PIP3 product formed by the activity of a PI3-K. The kinase reaction is performed in a microtitre plate (e.g., a 384 well microtitre plate). The total reaction volume is approximately 20 ul per well. In the first step, each well receives 2 ul of test compound in 20% dimethylsulphoxide resulting in a 2% DMSO final concentration. Next, approximately 14.5 ul of a kinase/PIP2 mixture (diluted in 1× reaction buffer) is added per well for a final concentration of 0.25-0.3 ug/ml kinase and 10 μM PIP2. The plate is sealed and incubated for 15 minutes at room temperature. To start the reaction, 3.5 ul of ATP (diluted in 1× reaction buffer) is added per well for a final concentration of 10 μM ATP. The plate is sealed and incubated for 1 hour at room temperature. The reaction is stopped by adding 5 ul of Stop Solution per well and then 5 ul of Detection Mix is added per well. The plate is sealed, incubated for 1 hour at room temperature, and then read on an appropriate plate reader. Data is analyzed and IC50s are generated using GraphPad Prism 5. […] For PI3K α, β, δ, and γ, the nM concentration of inhibitor to reach IC50 is provided.
# [1] = in vitro, read-out: PI3K α IC50
# [2] = in vitro, read-out: PI3K γ IC50
# Chain of p110α/p85α (P42336 whole entry): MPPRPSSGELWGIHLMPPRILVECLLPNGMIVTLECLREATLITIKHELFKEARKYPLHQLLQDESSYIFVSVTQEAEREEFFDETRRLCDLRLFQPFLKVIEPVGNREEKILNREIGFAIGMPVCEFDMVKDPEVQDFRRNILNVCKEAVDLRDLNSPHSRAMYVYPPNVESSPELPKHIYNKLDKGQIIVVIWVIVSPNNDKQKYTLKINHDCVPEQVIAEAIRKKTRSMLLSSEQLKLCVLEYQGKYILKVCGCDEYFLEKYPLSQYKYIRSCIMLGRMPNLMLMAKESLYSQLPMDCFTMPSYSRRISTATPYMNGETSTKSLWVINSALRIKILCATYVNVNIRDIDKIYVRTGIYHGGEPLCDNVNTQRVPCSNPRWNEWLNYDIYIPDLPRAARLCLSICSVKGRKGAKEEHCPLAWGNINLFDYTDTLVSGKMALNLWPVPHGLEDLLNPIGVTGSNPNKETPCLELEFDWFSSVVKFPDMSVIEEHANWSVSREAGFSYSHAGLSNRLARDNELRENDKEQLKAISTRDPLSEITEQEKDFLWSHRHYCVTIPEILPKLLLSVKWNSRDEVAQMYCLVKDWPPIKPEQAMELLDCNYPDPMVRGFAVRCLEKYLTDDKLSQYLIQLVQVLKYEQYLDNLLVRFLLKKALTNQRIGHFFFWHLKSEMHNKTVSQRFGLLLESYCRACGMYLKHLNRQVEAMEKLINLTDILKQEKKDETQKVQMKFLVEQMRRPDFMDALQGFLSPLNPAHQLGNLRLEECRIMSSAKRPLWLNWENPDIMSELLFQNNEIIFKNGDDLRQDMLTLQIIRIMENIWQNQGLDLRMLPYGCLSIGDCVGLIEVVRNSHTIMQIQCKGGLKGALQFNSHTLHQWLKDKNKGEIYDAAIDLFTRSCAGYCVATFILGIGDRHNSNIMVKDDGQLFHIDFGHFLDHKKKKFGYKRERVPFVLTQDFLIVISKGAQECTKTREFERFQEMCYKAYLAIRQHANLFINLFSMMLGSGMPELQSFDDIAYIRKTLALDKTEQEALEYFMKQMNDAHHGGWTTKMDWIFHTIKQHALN
# Chain of p110α/p85α (P27986 whole entry partner): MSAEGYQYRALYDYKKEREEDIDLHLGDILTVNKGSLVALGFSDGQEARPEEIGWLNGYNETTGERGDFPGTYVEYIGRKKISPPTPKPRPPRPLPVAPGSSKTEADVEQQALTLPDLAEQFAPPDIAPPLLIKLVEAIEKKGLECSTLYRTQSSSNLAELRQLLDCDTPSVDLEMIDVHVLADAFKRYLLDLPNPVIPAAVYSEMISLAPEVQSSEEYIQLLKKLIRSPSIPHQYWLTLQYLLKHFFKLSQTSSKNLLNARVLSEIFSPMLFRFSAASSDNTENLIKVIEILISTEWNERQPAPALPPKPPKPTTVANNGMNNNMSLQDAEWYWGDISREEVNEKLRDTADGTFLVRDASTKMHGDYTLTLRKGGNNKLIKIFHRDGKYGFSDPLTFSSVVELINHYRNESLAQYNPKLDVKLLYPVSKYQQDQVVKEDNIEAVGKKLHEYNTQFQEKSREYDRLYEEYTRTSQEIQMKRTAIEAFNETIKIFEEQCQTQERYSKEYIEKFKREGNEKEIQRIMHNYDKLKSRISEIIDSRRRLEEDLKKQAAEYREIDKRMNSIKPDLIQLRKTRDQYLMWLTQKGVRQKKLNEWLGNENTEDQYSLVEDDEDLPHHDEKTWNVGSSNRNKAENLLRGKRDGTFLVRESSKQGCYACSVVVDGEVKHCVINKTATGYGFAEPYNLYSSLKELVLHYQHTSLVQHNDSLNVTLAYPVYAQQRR
Compound,pIC50 (p110α/p85α; read-out: PI3K α In Vitro IC50),pIC50 (p110α/p85α; read-out: PI3K α IC50),further results
COc1ncc(-c2ccc3ncc(C(=O)N4CCOCC4)n3c2)cc1N [compound 414],> 5.00,–,–
COc1ccc(-c2ccc3ncc(C(=O)N4CCOCC4)n3c2)cc1S(=O)(=O)Nc1ccccc1 [compound 444],> 5.00,–,–
NC(=O)[C@H]1CCCN1C(=O)c1cnc2ccc(-c3ccc4oc(N)nc4c3)cn12 [compound 260],–,–,pIC50 (p110α/p85α; [1]): > 6.00; pIC50 (p110γ; [2]): > 5.00
CS(=O)(=O)N1CCC(n2cnc3ccc(-c4ccc5oc(N)nc5c4)cc3c2=O)CC1 [compound 67],–,> 6.00,–
Nc1nc2cc(-c3ccc4ncc(C(=O)N5CCOCC5)n4c3)c(Cl)cc2o1 [compound 370],–,–,pIC50 (p110α/p85α; [1]): > 5.00
Nc1cc(-c2ccc3ncc(C(=O)N4CCOCC4)n3c2)cnc1Cl [compound 415],> 5.00,–,–
C[C@@H]1CN(c2cnc3ccc(-c4ccc5oc(N)nc5c4)cc3n2)C[C@H](C)O1 [compound 132],–,> 6.00,pIC50 (p110γ; read-out: PI3K γ IC50): > 5.00
CC(=O)Nc1cc2ccc(-c3cc(F)c4oc(N)nc4c3)cn2n1 [compound 401],–,–,pIC50 (p110γ; read-out: PI3K γ In Vitro IC50): > 5.00
O=C(c1cnc2ccc(-c3cccc4[nH]ncc34)cn12)N1CCOCC1 [compound 506],> 7.00,–,–
Nc1nc2cc(-c3ccc4ncc(N5CCN(CC(F)(F)F)CC5)nc4c3)ccc2o1 [compound 395],–,–,pIC50 (p110α/p85α; [1]): > 7.00; pIC50 (p110γ; [2]): > 7.00
Nc1nc2cc(-c3ccc4ncc(C(=O)N5CCC(N6CC(F)(F)C6)C5)n4c3)ccc2o1 (stereo not drawn) [compound 498],> 6.00,–,pIC50 (p110γ; read-out: PI3K γ In Vitro IC50): > 5.00
CN1CCN(c2nc3cc(-c4ccc5oc(N)nc5c4)ccc3c(=O)n2C)CC1 [compound 79],–,> 5.00,–
COc1ccc(-c2ccc3ncc(C(=O)N4CCOCC4)n3c2)cc1NS(=O)(=O)c1ccccc1 [compound 455],> 5.00,–,pIC50 (p110γ; read-out: PI3K γ In Vitro IC50): > 5.00
CC1(C)CN(C(=O)c2cnc3ccc(-c4ccc5oc(N)nc5c4)cn23)CCO1 [compound 513],> 6.00,–,pIC50 (p110γ; read-out: PI3K γ In Vitro IC50): > 5.00
Nc1nc2cc(-c3ccc4ncc(C(=O)N5CC5)n4c3)ccc2o1 [compound 340],–,–,pIC50 (p110α/p85α; [1]): > 6.00; pIC50 (p110γ; [2]): > 6.00
Nc1nc2cc(-c3ccc4ncn(C5CCC5)c(=O)c4c3)ccc2o1 [compound 205],–,–,pIC50 (p110α/p85α; [1]): > 7.00
Nc1ncnc2ccc(-c3ccc4nccc(-c5ccncc5)c4c3)cc12 [compound 8],–,> 5.00,pIC50 (p110γ; read-out: PI3K γ IC50): > 6.00
Cc1c(-c2ccc3oc(N)nc3c2)ccc2ncc(N3CC(N4CCNCC4)C3)nc12 [compound 386],–,–,pIC50 (p110α/p85α; [1]): > 7.00
Nc1nc2cc(-c3ccc4ncn(C5CCOCC5)c4c3)ccc2o1 [compound 48],–,> 5.00,–
Nc1ncc(-c2ccc3oc(N)nc3c2)cn1 [compound 233],–,–,pIC50 (p110γ; [2]): > 5.00
Cc1cc(-c2ccc3oc(N)nc3c2)cn2c(C(=O)N3CCOCC3)cnc12 [compound 448],> 6.00,–,pIC50 (p110γ; read-out: PI3K γ In Vitro IC50): > 5.00
C[C@@H]1CN(C(=O)c2cnc3ccc(-c4ccc5oc(N)nc5c4)cn23)C[C@H](C)O1 [compound 106],–,> 5.00,pIC50 (p110γ; read-out: PI3K γ IC50): > 5.00
Nc1nc2cc(-c3ccc4ncc(N5CCCCC5)nc4c3)ccc2o1 [compound 175],–,> 7.00,pIC50 (p110γ; read-out: PI3K γ IC50): > 5.00
Nc1nc2cc(-c3ccc4ncc(-c5ccc(N6CCOCC6)nc5)nc4c3)ccc2o1 [compound 167],–,> 5.00,–
Nc1nc2cc(-c3ccc4ncc(N5CCN(CC6CC6)CC5=O)nc4c3)ccc2o1 [compound 393],–,–,pIC50 (p110α/p85α; [1]): > 5.00
Nc1nc2cc(-c3ccc4ncc(C(=O)N5CCOCC5)cc4c3)ccc2o1 [compound 97],–,> 5.00,–
Nc1ncc(-c2cnc3ccc(-c4ccc5oc(N)nc5c4)cc3n2)cn1 [compound 210],–,–,pIC50 (p110α/p85α; [1]): > 6.00

Compound,pIC50 (p110α/p85α; read-out: PI3K α In Vitro IC50),pIC50 (p110α/p85α; read-out: PI3K α IC50),further results
Nc1nc2cc(-c3ccc4ncc(N5CCC(n6cccn6)CC5)nc4c3)ccc2o1 [compound 337],–,–,pIC50 (p110α/p85α; [1]): > 7.00; pIC50 (p110γ; [2]): > 6.00
Nc1nc2cc(-c3ccc4ncc(C(=O)N5CC[C@H](F)C5)n4c3)ccc2o1 [compound 476],> 7.00,–,pIC50 (p110γ; read-out: PI3K γ In Vitro IC50): > 7.00
Nc1nc2cc(-c3ccc4ncc(N5CCOCC5)n4c3)ccc2o1 [compound 53],–,> 5.00,–
Nc1nc2cc(-c3ccc4ncc(-c5ccccc5)nc4c3)ccc2o1 [compound 180],–,> 6.00,–
Nc1nc2cc(-c3ccc4ncc(C(=O)N5CCS(=O)(=O)CC5)n4c3)ccc2o1 [compound 107],–,> 6.00,pIC50 (p110γ; read-out: PI3K γ IC50): > 5.00
CCN(CC)CCn1cnc2ccc(-c3ccc4oc(N)nc4c3)cc2c1=O [compound 224],–,–,pIC50 (p110α/p85α; [1]): > 5.00
Nc1nc2cc(-c3ccc4ncc(C(=O)N5CCC(O)CC5)n4c3)ccc2o1 [compound 162],–,> 6.00,pIC50 (p110γ; read-out: PI3K γ IC50): > 5.00
CN1CCN(CCn2cnc3ccc(-c4ccc5oc(N)nc5c4)cc3c2=O)CC1 [compound 280],–,–,pIC50 (p110α/p85α; [1]): > 5.00
CCN1CCN(C(=O)c2cnc3ccc(-c4ccc5oc(N)nc5c4)cn23)CC1 [compound 141],–,> 6.00,pIC50 (p110γ; read-out: PI3K γ IC50): > 5.00
CCN1CCN(c2cnc3ccc(-c4ccc5oc(N)nc5c4)cc3n2)C(=O)C1 [compound 391],–,–,pIC50 (p110α/p85α; [1]): > 5.00
O=C(c1cnc2ccc(-c3cncc(S(=O)(=O)Nc4ccccc4)c3)cn12)N1CCOCC1 [compound 447],> 5.00,–,–
CC(C)n1cnc2ccc(-c3ccc4oc(N)nc4c3)cc2c1=O [compound 206],–,–,pIC50 (p110α/p85α; [1]): > 7.00; pIC50 (p110γ; [2]): > 5.00
CN1CCN(C(=O)c2cnc3ccc(-c4ccc5oc(N)nc5c4)nn23)CC1 [compound 104],–,> 5.00,pIC50 (p110γ; read-out: PI3K γ IC50): > 5.00
Cc1ncccc1-c1cnc2ccc(-c3ccc4oc(N)nc4c3)cc2n1 [compound 185],–,> 6.00,–
CN(C)CCn1cnc2ccc(-c3ccc4oc(N)nc4c3)cc2c1=O [compound 292],–,–,pIC50 (p110α/p85α; [1]): > 5.00
Nc1nc2cc(-c3c[nH]c4nccc(-c5ccncc5)c34)ccc2o1 [compound 25],–,> 5.00,pIC50 (p110γ; read-out: PI3K γ IC50): > 5.00
Nc1nc2ccc(-c3cc(F)c4ncc(C(=O)N5CCOCC5)n4c3)cc2o1 [compound 439],> 5.00,–,–
CNS(=O)(=O)c1cncc(-c2ccc3ncc(C(=O)N4CCOCC4)n3c2)c1 [compound 450],> 5.00,–,–
CC1(C)COCCN1C(=O)c1cnc2ccc(-c3ccc4oc(N)nc4c3)cn12 [compound 514],> 6.00,–,–
Nc1nc2nc(-c3ccc4ncc(C(=O)N5CCOCC5)n4c3)ccc2o1 [compound 412],> 5.00,–,–
CNc1noc2cc(-c3ccc4ncc(C(=O)N5CCOCC5)n4c3)ccc12 [compound 486],> 5.00,–,pIC50 (p110γ; read-out: PI3K γ In Vitro IC50): > 5.00
Nc1nc2cc(-c3ccc4ncc(-c5ccnc(N6CCOCC6)c5)nc4c3)ccc2o1 [compound 150],–,> 6.00,–
Cc1ccn(C2CCN(c3cnc4ccc(-c5ccc6oc(N)nc6c5)cc4n3)CC2)n1 [compound 223],–,–,pIC50 (p110α/p85α; [1]): > 7.00; pIC50 (p110γ; [2]): > 6.00
Cc1cn(-c2cnc3ccc(-c4ccc5oc(N)nc5c4)cc3n2)cn1 [compound 177],–,> 7.00,pIC50 (p110γ; read-out: PI3K γ IC50): > 6.00
Nc1nc2ccc(-c3ccc4ncc(N5CCOCC5)nc4c3)cc2s1 [compound 114],–,> 7.00,pIC50 (p110γ; read-out: PI3K γ IC50): > 6.00
Nc1nsc2cc(-c3ccc4ncc(C(=O)N5CCOCC5)n4c3)ccc12 [compound 489],> 5.00,–,–
Nc1nc2ccc(-c3ccc4nnc(C(=O)N5CCCC5)n4c3)cc2o1 [compound 305],–,–,pIC50 (p110α/p85α; [1]): > 5.00

Compound,pIC50 (p110α/p85α; read-out: PI3K α In Vitro IC50),pIC50 (p110α/p85α; read-out: PI3K α IC50),further results
CN1CCN(n2cnc3ccc(-c4ccc5oc(N)nc5c4)cc3c2=O)CC1 [compound 446],> 6.00,–,–
Nc1nc2ccc(-c3ccc4ncn(C5CCOCC5)c(=O)c4c3)cc2o1 [compound 63],–,> 5.00,–
Nc1nc2cc(-c3ccc4ncn(C5CCOCC5)c(=O)c4c3)ccc2o1 [compound 55],–,> 6.00,–
CC(=O)Nc1nc2cc(-c3ccc4oc(N)nc4c3)ccc2s1 [compound 250],–,–,pIC50 (p110γ; [2]): > 7.00
CN(C)C1CCN(C(=O)c2cnc3ccc(-c4ccc5oc(N)nc5c4)cn23)CC1 [compound 304],–,–,pIC50 (p110α/p85α; [1]): > 6.00
Nc1ncc(-c2ccc3ncc(C(=O)N4CCOCC4)n3c2)cc1C(F)(F)F [compound 410],> 5.00,–,–
Nc1nc2cccc(-c3ccc4ncc(C(=O)N5CCOCC5)n4c3)c2s1 [compound 485],> 5.00,–,–
O=C(c1cnc2ccc(-c3ccc4oc(NC5CC5)nc4c3)cn12)N1CCOCC1 [compound 409],> 5.00,–,–
Cc1c(-c2ccc3oc(N)nc3c2)ccc2ncc(N3CC(N4CCOCC4)C3)nc12 [compound 383],–,–,pIC50 (p110α/p85α; [1]): > 6.00
C[C@H]1CN(c2cc3cc(-c4ccc5oc(N)nc5c4)ccc3nc2N)CCN1 [compound 403],> 5.00,–,–
CC1CN(C(=O)c2cnc3ccc(-c4ccc5oc(N)nc5c4)cn23)CC(C)N1 (stereo not drawn) [compound 142],–,> 5.00,–
Nc1nc2cc(-c3ccc4ncn(CCCN5CCOCC5)c(=O)c4c3)ccc2o1 [compound 290],–,–,pIC50 (p110α/p85α; [1]): > 6.00
CC(=O)N1CCC(n2cnc3ccc(-c4ccc5oc(N)nc5c4)cc3c2=O)CC1 [compound 66],–,> 5.00,–
CS(=O)(=O)Nc1cc(-c2ccc3ncc(C(=O)N4CCOCC4)n3c2)ccc1Cl [compound 460],> 5.00,–,–
Cc1cc2oc(N)nc2cc1-c1ccc2ncc(N3CC(N4CCOCC4)C3)nc2c1 [compound 353],–,–,pIC50 (p110α/p85α; [1]): > 5.00
CN1CCN(CCCn2cnc3ccc(-c4ccc5oc(N)nc5c4)cc3c2=O)CC1 [compound 291],–,–,pIC50 (p110α/p85α; [1]): > 6.00
Nc1nc2cc(-c3ccc4ncc(C(=O)N5CCOCC5)nc4c3)ccc2o1 [compound 158],–,> 5.00,–
O=C(c1cnc2ccc(-c3cnc(Cl)c4[nH]ncc34)cn12)N1CCOCC1 [compound 516],> 6.00,–,–
CN1CCN(C(=O)c2cnc3cnc(-c4ccc5oc(N)nc5c4)cn23)CC1 [compound 123],–,> 5.00,–
Cc1nc(NC(=O)N2CCC[C@H]2C(N)=O)sc1-c1ccc2oc(N)nc2c1 [compound 311],–,–,pIC50 (p110α/p85α; [1]): > 6.00
Nc1nsc2c(-c3ccc4ncc(C(=O)N5CCOCC5)n4c3)cccc12 [compound 474],> 5.00,–,–
Cn1c(N2CCOCC2)nc2cc(-c3ccc4oc(N)nc4c3)ccc2c1=O [compound 80],–,> 6.00,–
Nc1nc2cc(-c3ccc4ncn(C5CCCC5)c(=O)c4c3)ccc2o1 [compound 256],–,–,pIC50 (p110α/p85α; [1]): > 5.00
CN1CCN(C(=O)c2cnc3ccc(-c4ccc5oc(N)nc5c4)cc3n2)CC1 [compound 157],–,> 5.00,–
Nc1nc2cc(-c3cc(F)c4ncc(C(=O)N5CCOCC5)n4c3)ccc2o1 [compound 438],> 5.00,–,–
